Measurements: US20250154144A1 (CHILDREN'S HOSPITAL MEDICAL CENTER, priority 2021, published 2025)
Like-named read-outs stand apart in the source and are kept apart here. Each block holds one molecule with its values, some of them ahead of it.

Experiments:
MOLM14 D835Y cells = assay: cells; format: cell-based; conditions: Homo sapiens, MOLM-14, 48 h, 48 hours, Cell Titer Glo; read-out: MOLM14 D835Y IC50
MOLM14 F691L cells = assay: cells; format: cell-based; conditions: Homo sapiens, MOLM-14, 48 h, 48 hours, Cell Titer Glo; read-out: MOLM14 F691L IC50
THP1 cells = assay: Combination drug screening, Cell Titer Glo, 10 × 10 matrix, THP1 cells; format: cell-based; conditions: single compound range 0-10,000 nM or 0-20,000 nM
MOLM14(D835Y) cells = format: cell-based; conditions: MOLM14(D835Y) cells; for Excess HSA Score: 10 × 10
FLT3 = biological target: T1, FLT3 (Homo sapiens, UniProt P36888); assay: RBC HotSpot Kinase Assay, FLT3; conditions: FLT3 IC50
T1 sequence (P36888 610-943 limits assumed): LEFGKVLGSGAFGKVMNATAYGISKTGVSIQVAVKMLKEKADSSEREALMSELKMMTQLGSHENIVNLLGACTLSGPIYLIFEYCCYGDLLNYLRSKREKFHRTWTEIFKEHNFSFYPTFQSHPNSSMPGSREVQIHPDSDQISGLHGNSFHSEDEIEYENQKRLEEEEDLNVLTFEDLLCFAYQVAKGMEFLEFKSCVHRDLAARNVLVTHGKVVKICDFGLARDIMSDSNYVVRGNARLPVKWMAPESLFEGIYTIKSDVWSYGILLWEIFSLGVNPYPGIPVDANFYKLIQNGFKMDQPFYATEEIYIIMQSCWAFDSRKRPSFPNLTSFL

IRAK1 = IRAK1 (Homo sapiens, UniProt P51617); assay: RBC HotSpot Kinase Assay, IRAK1; conditions: IRAK1 IC50
IRAK4 = biological target: T2, IRAK4 (Homo sapiens, UniProt Q9NWZ3); assay: RBC HotSpot Kinase Assay, IRAK4; conditions: IRAK4 IC50
T2 sequence (Q9NWZ3 1-460): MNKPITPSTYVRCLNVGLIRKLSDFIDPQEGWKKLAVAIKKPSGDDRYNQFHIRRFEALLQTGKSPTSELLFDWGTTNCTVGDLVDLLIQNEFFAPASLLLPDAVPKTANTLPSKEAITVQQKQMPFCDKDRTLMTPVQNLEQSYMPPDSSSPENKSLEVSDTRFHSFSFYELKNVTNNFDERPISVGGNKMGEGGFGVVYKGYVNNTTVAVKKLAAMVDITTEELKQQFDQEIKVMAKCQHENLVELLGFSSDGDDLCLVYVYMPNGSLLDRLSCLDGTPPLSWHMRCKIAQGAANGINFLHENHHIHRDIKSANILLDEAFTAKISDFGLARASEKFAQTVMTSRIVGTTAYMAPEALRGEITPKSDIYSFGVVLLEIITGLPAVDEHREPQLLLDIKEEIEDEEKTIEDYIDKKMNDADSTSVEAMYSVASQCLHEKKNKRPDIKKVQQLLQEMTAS

[1] = combination with (+)-BAY-1251152

IRAK1, sequence (P51617 whole entry): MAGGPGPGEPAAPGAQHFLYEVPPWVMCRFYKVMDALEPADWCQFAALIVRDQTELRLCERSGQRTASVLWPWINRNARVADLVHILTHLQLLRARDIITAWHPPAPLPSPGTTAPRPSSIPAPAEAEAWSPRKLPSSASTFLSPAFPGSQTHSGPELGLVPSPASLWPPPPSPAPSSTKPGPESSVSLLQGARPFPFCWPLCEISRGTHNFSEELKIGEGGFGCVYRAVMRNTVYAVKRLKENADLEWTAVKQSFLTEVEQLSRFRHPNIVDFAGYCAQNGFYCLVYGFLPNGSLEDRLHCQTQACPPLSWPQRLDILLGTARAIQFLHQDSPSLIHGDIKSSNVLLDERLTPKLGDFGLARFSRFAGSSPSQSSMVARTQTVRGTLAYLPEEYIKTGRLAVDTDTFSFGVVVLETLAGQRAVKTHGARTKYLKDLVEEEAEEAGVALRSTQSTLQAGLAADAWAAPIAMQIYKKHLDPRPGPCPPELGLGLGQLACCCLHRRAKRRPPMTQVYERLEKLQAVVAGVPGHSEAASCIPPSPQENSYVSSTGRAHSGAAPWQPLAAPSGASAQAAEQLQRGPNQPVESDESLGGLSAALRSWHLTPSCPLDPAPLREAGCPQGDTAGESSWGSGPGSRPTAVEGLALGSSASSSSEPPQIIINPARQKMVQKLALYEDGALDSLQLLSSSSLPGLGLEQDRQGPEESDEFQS

SMILES: COc1cc2ncc(-c3cncc(N[C@@H]4CCCNC4)n3)n2cc1C(C)(C)O [Compound 20, (R)-2-(7-methoxy-3-(6-(piperidin-3-ylamino)pyrazin-2-yl)imidazo[1,2-a]pyridin-6-yl)propan-2-ol]
IC50 (MOLM14 D835Y cells): 43 nM
IC50 (MOLM14 F691L cells): 61 nM
IC50 (FLT3): < 0.5 nM
IC50 (IRAK1): 5 nM
IC50 (IRAK4): 1 nM

SMILES: FC(F)Oc1ccn2c(-c3ccnc(N[C@H]4CNC[C@@H]4F)n3)cnc2c1 [Compound 34, 4-(7-(difluoromethoxy)imidazo[1,2-a]pyridin-3-yl)-N-((3S,4S)-4-fluoropyrrolidin-3-yl)pyrimidin-2-amine]
IC50 (MOLM14 D835Y cells): 86 nM
IC50 (MOLM14 F691L cells): 1090 nM
IC50 (FLT3): < 0.5 nM
IC50 (IRAK1): 10 nM
IC50 (IRAK4): 5 nM

SMILES: FC(F)Oc1ccn2c(-c3ccnc(N[C@H]4CNCC[C@@H]4F)n3)cnc2c1 [Compound 36, 4-(7-(difluoromethoxy)imidazo[1,2-a]pyridin-3-yl)-N-((3S,4S)-4-fluoropiperidin-3-yl)pyrimidin-2-amine]
IC50 (MOLM14 D835Y cells): 43 nM
IC50 (MOLM14 F691L cells): 307 nM
IC50 (FLT3): < 0.5 nM
IC50 (IRAK1): 17 nM
IC50 (IRAK4): 3 nM

SMILES: O=C1CCCN1c1cn2c(-c3ccnc(N[C@H]4CNC[C@@H]4F)n3)cnc2cn1 [Compound 46, 1-(3-(2-(((3S,4S)-4-fluoropyrrolidin-3-yl)amino)pyrimidin-4-yl)imidazo[1,2-a]pyrazin-6-yl)pyrrolidin-2-one]
IC50 (MOLM14 D835Y cells): 77 nM
IC50 (MOLM14 F691L cells): 1370 nM
IC50 (FLT3): < 0.5 nM
IC50 (IRAK1): 64 nM
IC50 (IRAK4): 12 nM

SMILES: O=C1CCCN1c1cn2c(-c3ccnc(N[C@H]4CNCC[C@@H]4F)n3)cnc2cn1 [Compound 48, 1-(3-(2-(((3S,4S)-4-fluoropiperidin-3-yl)amino)pyrimidin-4-yl)imidazo[1,2-a]pyrazin-6-yl)pyrrolidin-2-one]
IC50 (MOLM14 D835Y cells): 43 nM
IC50 (MOLM14 F691L cells): 273 nM
IC50 (FLT3): < 0.5 nM
IC50 (IRAK1): 97 nM
IC50 (IRAK4): 18 nM

SMILES: CC(C)Oc1ccn2c(-c3nccc(N[C@H]4CNC[C@@H]4F)n3)cnc2c1 [Compound 52, N-((3S,4S)-4-fluoropyrrolidin-3-yl)-2-(7-isopropoxyimidazo[1,2-a]pyridin-3-yl)pyrimidin-4-amine]
IC50 (MOLM14 D835Y cells): 473 nM
IC50 (MOLM14 F691L cells): 7500 nM
IC50 (FLT3): 5 nM
IC50 (IRAK1): 961 nM
IC50 (IRAK4): 42 nM

SMILES: CC(C)Oc1ccn2c(-c3nccc(N[C@@H]4CCCNC4)n3)cnc2c1 [Compound 53, (R)-2-(7-isopropoxyimidazo[1,2-a]pyridin-3-yl)-N-(piperidin-3-yl)pyrimidin-4-amine]
IC50 (MOLM14 D835Y cells): 205 nM
IC50 (MOLM14 F691L cells): 2170 nM
IC50 (FLT3): 2 nM
IC50 (IRAK1): 1940 nM
IC50 (IRAK4): 60 nM

Stronger by IC50 (MOLM14 D835Y cells), values ahead:

IC50 (MOLM14 D835Y cells): 24 nM
IC50 (MOLM14 F691L cells): 55 nM
IC50 (FLT3): < 0.5 nM
IC50 (IRAK1): 62 nM
IC50 (IRAK4): 1 nM
SMILES: COc1ccn2c(-c3cncc(N[C@@H]4CCCNC4)n3)cnc2c1 [Compound 5, (R)-6-(7-methoxyimidazo[1,2-a]pyridin-3-yl)-N-(piperidin-3-yl)pyrazin-2-amine]
Comments (THP1 cells; with (+)-BAY-1251152): Synergistic
Excess HSA Score (THP1 cells; with (+)-BAY-1251152): −264.5
Comments (THP1 cells; with AMG-232): Antagonistic
Excess HSA Score (THP1 cells; with AMG-232): 105.5
Comments (THP1 cells; with AZD-5363): Synergistic
Excess HSA Score (THP1 cells; with AZD-5363): −94.57
Comments (THP1 cells; with Eprenetapopt/APR-246): Antagonistic
Excess HSA Score (THP1 cells; with Eprenetapopt/APR-246): 163.2
Comments (THP1 cells; with Ivosidenib): Antagonistic
Excess HSA Score (THP1 cells; with Ivosidenib): 190
Comments (THP1 cells; with Lenalidomide): Antagonistic
Excess HSA Score (THP1 cells; with Lenalidomide): 264.6
Comments (THP1 cells; with Palbociclib): Antagonistic
Excess HSA Score (THP1 cells; with Palbociclib): 624.7438
Comments (THP1 cells; with Prednisolone): Antagonistic
Excess HSA Score (THP1 cells; with Prednisolone): 31.68
Comments (THP1 cells; with SNDX-5613): Antagonistic
Excess HSA Score (THP1 cells; with SNDX-5613): 340
Comments (THP1 cells; with TNO-155): Antagonistic
Excess HSA Score (THP1 cells; with TNO-155): 28.11
Comments (THP1 cells; with Trametinib): Antagonistic
Excess HSA Score (THP1 cells; with Trametinib): 374.3
Comments (THP1 cells; with Ulixertinib): Antagonistic
Excess HSA Score (THP1 cells; with Ulixertinib): 565.8
Comments (THP1 cells; with Venetoclax (ABT-199)): Synergistic
Excess HSA Score (THP1 cells; with Venetoclax (ABT-199)): −1771.116
Excess HSA Score (MOLM14(D835Y) cells; [1]): 11.13
Excess HSA Score (MOLM14(D835Y) cells; combination with AMG-232): −114.6
Excess HSA Score (MOLM14(D835Y) cells; combination with AZD-5363): −297.4
Excess HSA Score (MOLM14(D835Y) cells; combination with Eprenetapopt/APR-246): −154.6246
Excess HSA Score (MOLM14(D835Y) cells; combination with Ivosidenib): −34.74
Excess HSA Score (MOLM14(D835Y) cells; combination with Lenalidomide): −84.4505
Excess HSA Score (MOLM14(D835Y) cells; combination with Palbociclib): −483.7
Excess HSA Score (MOLM14(D835Y) cells; combination with Prednisolone): −69.46
Excess HSA Score (MOLM14(D835Y) cells; combination with SNDX-5613): −465.3
Excess HSA Score (MOLM14(D835Y) cells; combination with TNO-155): −575.9
Excess HSA Score (MOLM14(D835Y) cells; combination with Trametinib): 213.7
Excess HSA Score (MOLM14(D835Y) cells; combination with Ulixertinib): −1042
Excess HSA Score (MOLM14(D835Y) cells; combination with Venetoclax (ABT-199)): −862.5
Comments (MOLM14(D835Y) cells; [1]): Antagonistic
Comments (MOLM14(D835Y) cells; combination with Ulixertinib): Synergistic

IC50 (MOLM14 D835Y cells): 12 nM
IC50 (MOLM14 F691L cells): 109 nM
IC50 (FLT3): < 0.5 nM
IC50 (IRAK1): 13 nM
IC50 (IRAK4): < 0.5 nM
SMILES: COc1ccn2c(-c3ccnc(N[C@@H]4CCCNC4)n3)cnc2c1 [Compound 29, (R)-4-(7-methoxyimidazo[1,2-a]pyridin-3-yl)-N-(piperidin-3-yl)pyrimidin-2-amine]

IC50 (MOLM14 D835Y cells): 15 nM
IC50 (MOLM14 F691L cells): 344 nM
IC50 (FLT3): < 0.5 nM
IC50 (IRAK1): 9 nM
IC50 (IRAK4): 0.7 nM
SMILES: FC(F)COc1ccn2c(-c3ccnc(N[C@H]4CNC[C@@H]4F)n3)cnc2c1 [Compound 31, 4-(7-(2,2-difluoroethoxy)imidazo[1,2-a]pyridin-3-yl)-N-((3S,4S)-4-fluoropyrrolidin-3-yl)pyrimidin-2-amine]

IC50 (MOLM14 D835Y cells): 7 nM
IC50 (MOLM14 F691L cells): 77 nM
IC50 (FLT3): < 0.5 nM
IC50 (IRAK1): 45 nM
IC50 (IRAK4): 2 nM
SMILES: FC(F)COc1ccn2c(-c3ccnc(N[C@@H]4CCCNC4)n3)cnc2c1 [Compound 32, (R)-4-(7-(2,2-difluoroethoxy)imidazo[1,2-a]pyridin-3-yl)-N-(piperidin-3-yl)pyrimidin-2-amine]

IC50 (MOLM14 D835Y cells): 39 nM
IC50 (MOLM14 F691L cells): 433 nM
IC50 (FLT3): < 0.5 nM
IC50 (IRAK1): 120 nM
IC50 (IRAK4): 27 nM
SMILES: FC(F)Oc1ccn2c(-c3ccnc(N[C@@H]4CCCNC4)n3)cnc2c1 [Compound 35, (R)-4-(7-(difluoromethoxy)imidazo[1,2-a]pyridin-3-yl)-N-(piperidin-3-yl)pyrimidin-2-amine]

IC50 (MOLM14 D835Y cells): 22 nM
IC50 (MOLM14 F691L cells): 193 nM
IC50 (FLT3): < 0.5 nM
IC50 (IRAK1): 60 nM
IC50 (IRAK4): 6 nM
SMILES: c1cc(-c2cnc3cc(OC4CC4)ccn23)nc(N[C@@H]2CCCNC2)n1 [Compound 38, (R)-4-(7-cyclopropoxyimidazo [1,2-a]pyridin-3-yl)-N-(piperidin-3-yl)pyrimidin-2-amine]

IC50 (MOLM14 D835Y cells): 39 nM
IC50 (MOLM14 F691L cells): 344 nM
IC50 (FLT3): < 0.5 nM
IC50 (IRAK1): 68 nM
IC50 (IRAK4): 12 nM
SMILES: O=C1CCCN1c1cn2c(-c3ccnc(N[C@@H]4CCCNC4)n3)cnc2cn1 [Compound 47, (R)-1-(3-(2-(piperidin-3-ylamino)pyrimidin-4-yl)imidazo[1,2-a]pyrazin-6-yl)pyrrolidin-2-one]
